Read-outs that look alike come from different tables or passages of the source.
Key:
[1] = Text: Absorption of nicotine from the oral cavity to the systemic circulation is dependent on the pH of the saliva, pH of the blood plasma and the pKa of nicotine, which is about 7.8. Assuming a pH of the plasma of 7.4 and of the saliva of 6.8 only about 10% of the nicotine will be in the free base form. Thus, in order to promote absorption of nicotine in a free base form, which is the form predominantly absorbed through the mucosa, the pH of the saliva must be increased. At a pH of 8.8 about 90% of the nicotine will then be in the free base form.
adult = conditions: Merck Index; cited from earlier work
[2] = smoking a cigarette; cited from earlier work

## CN1CCCC1c1cccnc1 (stereo not shown) [nicotine, 3-(1-methyl-2-pyrrolidinyl)-pyridine]
[1]; assuming pH of plasma 7.4 and of saliva 6.8
  nicotine in the free base form: about 10%
[1]; at a pH of 8.8
  nicotine in the free base form: about 90%
adult
  amount of nicotine able to kill an adult: Approximately forty
[2]
  time for nicotine to reach the brain after inhalation: ten
